The test system of series [1] is male Sprague-Dawley rats. Type of series: in vivo, rat. To be noted: rat, in vivo.
Series [2] deals with male CD-1 mice. The note with it: mouse, in vivo.
The conditions of series [3]: cyno plasma, 37° C., incubation 0 hr.
Series [4] can be described thus: in vitro. To be noted: monkey, plasma.
For series [5] the following is noted: human plasma, 37° C., incubation 0 hr.
Series [6] can be described thus: in vitro. To be noted: human, plasma.
For series [7], the target named is T1, hNav1.7 (Homo sapiens, UniProt Q15858). In words: cell-based. Type of series: cell-based.
In series [8] the target is T2, hNav1.5 (Homo sapiens, UniProt Q14524). In words: cell-based. The note with it: IonWorks Quattro; read-out: IC50 Nav1.5. A general note: The patch-clamp technique gives a direct electrical read-out from membranes.
Series [9] relates to hNav1.8. In words: cell-based. It counts as cell-based, human.
The target of series [10] is hNav1.8 (Homo sapiens, UniProt Q9Y5Y9). In words: cell-based. It counts as cell-based. To be noted: WCPC, n=2.
The test system of series [11] is TTX-sensitive Nav channels in mouse DRG neuron. It counts as cell-based.
Series [12] addresses T2, hNav1.5. In words: cell-based. Type of series: cell-based.
Series [13] has as its target T3, hNav1.4 (Homo sapiens, UniProt P35499). Type of series: cell-based.
The target in series [14] is T2, hNav1.5. In words: cell-based. To be noted: PatchXpress; * = at high concentrations compound would wash off slowly or not at all; read-out: PX hNav1.5 Tonic IC50.
Series [15] deals with T4, hNav1.3 (Homo sapiens, UniProt Q9NY46). It counts as cell-based.
Series [16] can be described thus: in vitro. To be noted: rat, plasma.
In series [17] the target is T3, hNav1.4. In words: cell-based.
Series [18] concerns the target T4, hNav1.3. In words: cell-based. To be noted: IonWorks Quattro; read-out: IC50 Nav1.3.
The conditions of series [19]: rat plasma, 37° C., incubation time 0 hr (normalisation point).
In series [20] the target is T1, hNav1.7. In words: cell-based. It counts as cell-based. To be noted: PatchXpress; * = at high concentrations compound would wash off slowly or not at all; read-out: PX hNav1.7 Tonic IC50.
The target in series [21] is T3, hNav1.4. In words: cell-based. The note with it: PatchXpress; * = at high concentrations compound would wash off slowly or not at all; read-out: PX hNav1.4 Tonic IC50.
Series [22] deals with T1, hNav1.7. In words: cell-based. To be noted: IonWorks Quattro; read-out: IC50 Nav1.7.
Series [23] is described as follows: in vitro. To be noted: mouse, plasma.
For series [24] the following is noted: mouse plasma, 37° C., incubation time 0 hr (normalisation point).
For series [25], the system named is male CD-1 mice. To be noted: mouse, in vivo. This is another data set of the same source.

SMILES strings stand for the structures. Several values for one entry are separate records, joined by “and”; a condition that tells them apart may be missing. Identical values can stand only once. Entries after “also recorded” stand apart in the source; their conditions may differ. Like-named read-outs stand apart in the source and are kept apart here.

T4 sequence (Q9NY46 whole entry): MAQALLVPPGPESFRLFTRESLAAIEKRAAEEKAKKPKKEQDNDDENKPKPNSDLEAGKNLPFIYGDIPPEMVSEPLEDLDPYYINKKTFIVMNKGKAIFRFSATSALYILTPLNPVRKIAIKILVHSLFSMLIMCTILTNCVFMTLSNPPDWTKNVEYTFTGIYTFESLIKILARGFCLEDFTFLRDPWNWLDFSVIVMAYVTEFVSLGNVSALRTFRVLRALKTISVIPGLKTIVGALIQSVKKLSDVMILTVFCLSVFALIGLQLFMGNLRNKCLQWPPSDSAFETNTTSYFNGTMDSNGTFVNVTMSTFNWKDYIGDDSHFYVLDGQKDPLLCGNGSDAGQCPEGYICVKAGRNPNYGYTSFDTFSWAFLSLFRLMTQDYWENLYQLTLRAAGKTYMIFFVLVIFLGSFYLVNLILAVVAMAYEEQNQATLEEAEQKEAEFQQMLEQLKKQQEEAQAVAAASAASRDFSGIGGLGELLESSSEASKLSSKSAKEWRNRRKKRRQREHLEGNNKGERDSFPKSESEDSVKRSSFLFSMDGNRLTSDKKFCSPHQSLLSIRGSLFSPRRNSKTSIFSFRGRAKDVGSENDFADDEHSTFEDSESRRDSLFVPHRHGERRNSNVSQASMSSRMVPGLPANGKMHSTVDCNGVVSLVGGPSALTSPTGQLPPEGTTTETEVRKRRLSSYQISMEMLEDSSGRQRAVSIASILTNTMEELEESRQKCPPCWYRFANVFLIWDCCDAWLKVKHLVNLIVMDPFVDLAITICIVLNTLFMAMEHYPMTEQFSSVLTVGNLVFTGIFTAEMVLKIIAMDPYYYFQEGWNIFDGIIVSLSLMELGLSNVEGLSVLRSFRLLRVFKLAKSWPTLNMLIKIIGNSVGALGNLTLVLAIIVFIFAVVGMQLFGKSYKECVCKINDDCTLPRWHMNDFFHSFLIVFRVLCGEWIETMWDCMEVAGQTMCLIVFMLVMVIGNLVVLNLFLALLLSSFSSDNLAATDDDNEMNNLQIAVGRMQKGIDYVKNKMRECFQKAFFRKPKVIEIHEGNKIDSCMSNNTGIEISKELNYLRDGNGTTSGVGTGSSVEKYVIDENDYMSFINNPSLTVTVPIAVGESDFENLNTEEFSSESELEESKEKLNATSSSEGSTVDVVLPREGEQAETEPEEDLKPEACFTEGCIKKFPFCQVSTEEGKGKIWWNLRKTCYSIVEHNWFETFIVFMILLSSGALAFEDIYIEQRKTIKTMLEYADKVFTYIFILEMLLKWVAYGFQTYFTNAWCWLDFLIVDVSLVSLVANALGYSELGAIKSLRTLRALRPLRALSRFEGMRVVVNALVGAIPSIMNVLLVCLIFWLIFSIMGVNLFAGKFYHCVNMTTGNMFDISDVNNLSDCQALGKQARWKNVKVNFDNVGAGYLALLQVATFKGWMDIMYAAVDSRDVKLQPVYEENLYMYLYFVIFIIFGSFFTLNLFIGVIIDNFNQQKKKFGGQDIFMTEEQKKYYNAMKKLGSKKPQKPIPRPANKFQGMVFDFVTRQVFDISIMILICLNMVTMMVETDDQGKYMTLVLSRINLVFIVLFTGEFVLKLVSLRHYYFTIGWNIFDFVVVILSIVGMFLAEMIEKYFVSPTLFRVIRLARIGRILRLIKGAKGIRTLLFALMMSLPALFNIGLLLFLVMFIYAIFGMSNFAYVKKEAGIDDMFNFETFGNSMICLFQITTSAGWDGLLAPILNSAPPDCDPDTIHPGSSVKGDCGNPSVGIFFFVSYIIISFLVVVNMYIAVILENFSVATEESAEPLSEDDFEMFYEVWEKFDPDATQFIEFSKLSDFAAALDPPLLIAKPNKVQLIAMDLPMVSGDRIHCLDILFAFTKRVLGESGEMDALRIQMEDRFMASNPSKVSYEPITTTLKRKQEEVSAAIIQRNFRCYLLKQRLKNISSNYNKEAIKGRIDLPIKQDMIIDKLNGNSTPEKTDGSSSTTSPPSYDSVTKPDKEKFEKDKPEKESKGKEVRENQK
T2 sequence (Q14524 whole entry): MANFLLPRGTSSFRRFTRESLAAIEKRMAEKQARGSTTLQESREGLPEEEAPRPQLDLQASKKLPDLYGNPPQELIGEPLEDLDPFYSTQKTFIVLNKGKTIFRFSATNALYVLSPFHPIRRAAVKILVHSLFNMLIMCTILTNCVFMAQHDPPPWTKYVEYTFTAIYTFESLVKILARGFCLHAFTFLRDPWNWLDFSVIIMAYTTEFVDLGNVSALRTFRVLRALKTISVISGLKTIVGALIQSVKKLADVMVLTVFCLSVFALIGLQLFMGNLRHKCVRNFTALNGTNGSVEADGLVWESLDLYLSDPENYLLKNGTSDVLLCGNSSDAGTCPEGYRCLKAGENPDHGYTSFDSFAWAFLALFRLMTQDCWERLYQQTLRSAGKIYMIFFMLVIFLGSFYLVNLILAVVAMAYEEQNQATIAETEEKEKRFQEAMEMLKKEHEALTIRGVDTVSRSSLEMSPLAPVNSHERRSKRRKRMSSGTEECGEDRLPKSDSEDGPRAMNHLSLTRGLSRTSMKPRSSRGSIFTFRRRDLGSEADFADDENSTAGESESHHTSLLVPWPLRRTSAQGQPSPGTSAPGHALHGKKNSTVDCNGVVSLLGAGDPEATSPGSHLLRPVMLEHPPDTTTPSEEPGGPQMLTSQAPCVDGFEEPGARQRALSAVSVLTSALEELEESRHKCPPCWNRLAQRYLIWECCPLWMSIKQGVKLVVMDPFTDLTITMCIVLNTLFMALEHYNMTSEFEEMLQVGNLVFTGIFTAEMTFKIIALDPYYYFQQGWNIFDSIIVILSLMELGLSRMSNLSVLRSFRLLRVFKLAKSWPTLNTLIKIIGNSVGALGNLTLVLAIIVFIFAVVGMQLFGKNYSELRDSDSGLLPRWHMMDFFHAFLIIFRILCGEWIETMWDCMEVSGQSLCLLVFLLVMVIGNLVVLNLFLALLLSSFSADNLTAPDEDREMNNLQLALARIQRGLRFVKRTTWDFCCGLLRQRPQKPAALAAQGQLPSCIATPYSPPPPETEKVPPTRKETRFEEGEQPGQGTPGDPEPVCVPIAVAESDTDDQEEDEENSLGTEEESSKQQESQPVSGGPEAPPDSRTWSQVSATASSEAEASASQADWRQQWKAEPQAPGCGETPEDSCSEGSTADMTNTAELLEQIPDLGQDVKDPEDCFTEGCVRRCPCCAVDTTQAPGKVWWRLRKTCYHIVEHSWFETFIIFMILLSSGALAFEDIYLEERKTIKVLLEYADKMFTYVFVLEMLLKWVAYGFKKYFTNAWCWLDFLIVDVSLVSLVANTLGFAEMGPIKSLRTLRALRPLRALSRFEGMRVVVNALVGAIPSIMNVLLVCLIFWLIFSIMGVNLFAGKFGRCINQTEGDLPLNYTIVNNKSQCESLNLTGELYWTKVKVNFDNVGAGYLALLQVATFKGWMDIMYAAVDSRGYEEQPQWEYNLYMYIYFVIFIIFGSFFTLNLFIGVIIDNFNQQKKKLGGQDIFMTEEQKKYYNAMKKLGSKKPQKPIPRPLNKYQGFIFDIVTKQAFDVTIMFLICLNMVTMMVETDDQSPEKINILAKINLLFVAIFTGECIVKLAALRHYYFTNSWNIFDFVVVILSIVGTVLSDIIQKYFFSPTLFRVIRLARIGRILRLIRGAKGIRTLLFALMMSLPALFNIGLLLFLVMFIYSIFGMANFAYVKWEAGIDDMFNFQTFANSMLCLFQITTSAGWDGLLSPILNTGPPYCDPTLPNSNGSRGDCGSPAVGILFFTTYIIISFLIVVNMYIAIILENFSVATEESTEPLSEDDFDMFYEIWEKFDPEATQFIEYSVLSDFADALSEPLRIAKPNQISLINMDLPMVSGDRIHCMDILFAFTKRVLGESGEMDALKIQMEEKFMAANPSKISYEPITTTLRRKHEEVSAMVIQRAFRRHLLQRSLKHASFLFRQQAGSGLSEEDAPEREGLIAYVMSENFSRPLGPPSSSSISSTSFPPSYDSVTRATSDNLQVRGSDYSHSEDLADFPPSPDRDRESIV

For `CN1CC[C@]23c4c5ccc(O)c4O[C@H]2[C@@H](O)C=C[C@H]3[C@H]1C5` [morphine], the “formalin response, second phase (5-40 min)” value in series [1] is given as “significantly reduce pain response; also recorded: significantly reduced”. Moreover, the “time spent lifting and/or licking the affected paw, second phase (5-40 min)” value in [2] is reported as “significantly reduce pain response; also recorded: significantly reduced the pain response; also recorded: did significantly reduce”.

Consider `CC[C@H](C)[C@H](NC(=O)[C@H](CO)NC(=O)[C@H](CCCCN)NC(=O)[C@H](CCCNC(=N)N)NC(=O)[C@@H]1CSSC[C@@H]2NC(=O)[C@H](C)NC(=O)[C@H](CCCNC(=N)N)NC(=O)[C@H](CCCCN)NC(=O)[C@H](CO)NC(=O)[C@H](CC(=O)O)NC(=O)[C@@H]3CSSC[C@H](NC(=O)[C@H](CCC(=O)O)NC(=O)[C@H](CC(C)C)NC(=O)CNC(=O)[C@H](CCC(=O)O)NC(=O)[C@H](CSSC[C@H](NC(=O)[C@@H](N)Cc4ccc(O)cc4)C(=O)N[C@@H](CCC(N)=O)C(=O)N[C@@H](CCCCN)C(=O)N[C@@H](Cc4c[nH]c5ccccc45)C(=O)N[C@@H](CCSC)C(=O)N[C@@H](Cc4c[nH]c5ccccc45)C(=O)N[C@@H]([C@@H](C)O)C(=O)N3)NC2=O)C(=O)N[C@@H](CCCCN)C(=O)N[C@@H](CC(C)C)C(=O)N[C@@H](Cc2c[nH]c3ccccc23)C(=O)N1)C(N)=O` [SEQ ID NO: 138, [Glu20;Ser28]JzTx-V(1-29)], for which the “% Peptide Remaining” value in series [3] is listed as 100%. In addition, in [4], the fraction remaining at 2 h came out at 78%, the fraction remaining at 4 h was 75%, the fraction remaining at 6 h stood at 69% and the amount remaining at 8 h came out at 62%. In [4], the share remaining at 24 h stood at 59%. The “% Peptide Remaining” value in [5] amounted to 100%. Further, in [6], the fraction remaining at 2 h came out at 86%, the fraction remaining at 4 h was 82%, the amount remaining at 6 h stood at 72% and the amount remaining at 8 h is 68%. This molecule also came in with a share remaining at 24 h in series [6] of 49%.

Regarding `CC[C@H](C)[C@H](NC(=O)[C@@H](NC(=O)[C@H](CCCCN)NC(=O)[C@H](CCCNC(=N)N)NC(=O)[C@@H]1CSSC[C@@H]2NC(=O)[C@H](C)NC(=O)[C@H](CCCNC(=N)N)NC(=O)[C@H](CCCCN)NC(=O)[C@H](CO)NC(=O)[C@H](CC(=O)O)NC(=O)[C@@H]3CSSC[C@H](NC(=O)[C@H](CCCNC(=N)N)NC(=O)[C@H](CC(C)C)NC(=O)CNC(=O)[C@H](CCC(=O)O)NC(=O)[C@H](CSSC[C@H](NC(=O)[C@@H](N)Cc4ccc(O)cc4)C(=O)N[C@@H](CCC(N)=O)C(=O)N[C@@H](CCCCN)C(=O)N[C@@H](Cc4c[nH]c5ccccc45)C(=O)N[C@@H](CCSC)C(=O)N[C@@H](Cc4c[nH]c5ccccc45)C(=O)N[C@@H]([C@@H](C)O)C(=O)N3)NC2=O)C(=O)N[C@@H](CCCCN)C(=O)N[C@@H](CC(C)C)C(=O)N[C@@H](Cc2c[nH]c3ccccc23)C(=O)N1)[C@@H](C)CC)C(N)=O` [compound 2], the “1.x/1.7, fully non-inactivated” value in series [7] (hNav1.7 vs hNav1.7, fully non-inactivated) is 1; in [9] (hNav1.8 vs hNav1.7, fully non-inactivated) it was 5724; in series [11] (mTTX-S vs hNav1.7, fully non-inactivated), 530; in [12] (hNav1.5 vs hNav1.7, fully non-inactivated) it was 6230; in series [13] (hNav1.4 vs hNav1.7, fully non-inactivated), 75; in series [15] (hNav1.3 vs hNav1.7, fully non-inactivated) it was 99. Also, the “1.x/1.7, partially inactivated” value in series [7] (hNav1.7 vs hNav1.7, partially inactivated) is 1; in series [9] (hNav1.8 vs hNav1.7, partially inactivated) it was 3282; in [11] (mTTX-S vs hNav1.7, partially inactivated), 111; in [12] (hNav1.5 vs hNav1.7, partially inactivated) it was 2641; in [13] (hNav1.4 vs hNav1.7, partially inactivated), 58; in series [15] (hNav1.3 vs hNav1.7, partially inactivated) it was 76. Moreover, the IC50 in [8] is 7200 nM and > 7000 nM; in [10] (hNav1.8, fully non-inactivated, read-out: Mean IC50, fully non-inactivated) it was 810 nM; in series [10] (hNav1.8, partially inactivated, read-out: Mean IC50, partially inactivated), 530 nM; in series [12] (WCPC, hNav1.5, fully non-inactivated, n=2), 882 nM; in series [14], 1600 nM and 2210 nM and 3250 nM.

Regarding `CC[C@H](C)[C@H](NC(=O)[C@H](CO)NC(=O)[C@H](CCCCN)NC(=O)[C@H](CCCNC(=N)N)NC(=O)[C@@H]1CSSC[C@@H]2NC(=O)[C@H](C)NC(=O)[C@H](CCCNC(=N)N)NC(=O)[C@H](CCCCN)NC(=O)[C@H](CO)NC(=O)[C@H](CC(=O)O)NC(=O)[C@@H]3CSSC[C@H](NC(=O)[C@H](CCC(=O)O)NC(=O)[C@H](CC(C)C)NC(=O)CNC(=O)[C@H](CCC(=O)O)NC(=O)[C@H](CSSC[C@H](NC(=O)[C@@H](N)Cc4ccc(O)cc4)C(=O)N[C@@H](CCC(N)=O)C(=O)N[C@@H](CCCCN)C(=O)N[C@@H](Cc4c[nH]c5ccccc45)C(=O)N[C@@H](CCSC)C(=O)N[C@@H](Cc4c[nH]c5ccccc45)C(=O)N[C@@H]([C@@H](C)O)C(=O)N3)NC2=O)C(=O)N[C@@H](CCCCN)C(=O)N[C@@H](CC(C)C)C(=O)N[C@@H](Cc2c[nH]c3ccccc23)C(=O)N1)C(N)=O` [compound 138], the figures for the amount remaining at 2 h in [16] and in series [23] were 90% and 64%, respectively. In addition, the fraction remaining at 4 h in series [16] came out at 81%; in series [23] it was 61%. Moreover, the figures for the amount remaining at 6 h in series [16] and in series [23] were 71% and 55%, respectively. In addition, the results for the amount remaining at 8 h in [16] and in series [23] were 67% and 51%, respectively. In addition, the amount remaining at 24 h in series [16] turned out to be 59%; in series [23], 50%. Moreover, the IC50 was > 5000 nM in series [17] (IonWorks Quattro, read-out: IC50 Nav1.4); 13900 nM and 9200 nM in series [8]; > 5000 nM in [18]; 3.3 nM and 2 nM and 0.4 nM in series [20]; 4790 nM and 3580 nM and 2970 nM in series [21]; 80 nM and 150 nM in [22]. Besides, the 50% inhibitory concentration (IC50) in series [14] is > 10000 nM and 14600 nM. Further, in series [17] (ratio of IonWorks Quattro IC50 values), the Nav1.4/Nav1.7 was 62 and 34. Also, the “% Peptide Remaining” value in series [19] and in series [24] was 100% each time.

As to `Cc1cccc(C)c1OCC(C)N` (stereo not shown) [mexilitine, reference compound], the “thermal latency / thermal hyperalgesia” value in series [25] is given as “significantly reverse thermal hyperalgesia”.

A word on the share remaining: it is what is left of the initial amount, in per cent. Low readings indicate more turnover, high ones less turnover. A word on the IC50: it is the concentration that inhibits the measured activity by half.

The record behind these values is patent US9636418B2 (priority 2013, dated 2017).
